According to the supplement of paper PMC11451515:

System: SEM cells
Assay: cell viability relative to DMSO control; higher = less cytotoxic
Settings: 48 h
Method in brief: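 Viability values are per-plate percentages of DMSO wells, with background from cell-free wells. Library compounds in DMSO were pin-dosed, in an 11-point threefold series from 47 μM to 0.79 nM, onto NOMO1 or SEM (500 cells/well) or P12-Ichikawa (1000 cells/well) leukemia cells in 1536-well plates (5 μl). Those cells had been adapted for at least four passages in each medium, and CellTiter-Glo One luminescence was read after 48 h at 37°C.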

[1] = HPLM + 10% dialyzed FBS, 0.000781 µM
[2] = HPLM + 10% dialyzed FBS, 0.00234 µM
[3] = HPLM + 10% dialyzed FBS, 0.00702 µM
[4] = HPLM + 10% dialyzed FBS, 0.0211 µM
[5] = HPLM + 10% dialyzed FBS, 0.0632 µM
[6] = HPLM + 10% dialyzed FBS, 0.19 µM
[7] = HPLM + 10% dialyzed FBS, 0.569 µM
[8] = HPLM + 10% dialyzed FBS, 1.71 µM
[9] = HPLM + 10% dialyzed FBS, 5.12 µM
[10] = HPLM + 10% dialyzed FBS, 15.4 µM
[11] = HPLM + 10% dialyzed FBS, 46.1 µM
[12] = RPMI 5 mM glucose + 10% FBS, 0.000781 µM
[13] = RPMI 5 mM glucose + 10% FBS, 0.00234 µM
[14] = RPMI 5 mM glucose + 10% FBS, 0.00702 µM
[15] = RPMI 5 mM glucose + 10% FBS, 0.0211 µM
[16] = RPMI 5 mM glucose + 10% FBS, 0.0632 µM
[17] = RPMI 5 mM glucose + 10% FBS, 0.19 µM
[18] = RPMI 5 mM glucose + 10% FBS, 0.569 µM
[19] = RPMI 5 mM glucose + 10% FBS, 1.71 µM
[20] = RPMI 5 mM glucose + 10% FBS, 5.12 µM
[21] = RPMI 5 mM glucose + 10% FBS, 15.4 µM
[22] = RPMI 5 mM glucose + 10% FBS, 46.1 µM
[23] = RPMI 5 mM glucose + 10% dialyzed FBS, 0.000781 µM
[24] = RPMI 5 mM glucose + 10% dialyzed FBS, 0.00234 µM
[25] = RPMI 5 mM glucose + 10% dialyzed FBS, 0.00702 µM
[26] = RPMI 5 mM glucose + 10% dialyzed FBS, 0.0211 µM
[27] = RPMI 5 mM glucose + 10% dialyzed FBS, 0.0632 µM
[28] = RPMI 5 mM glucose + 10% dialyzed FBS, 0.19 µM
[29] = RPMI 5 mM glucose + 10% dialyzed FBS, 0.569 µM
[30] = RPMI 5 mM glucose + 10% dialyzed FBS, 1.71 µM
[31] = RPMI 5 mM glucose + 10% dialyzed FBS, 5.12 µM
[32] = RPMI 5 mM glucose + 10% dialyzed FBS, 15.4 µM
[33] = RPMI 5 mM glucose + 10% dialyzed FBS, 46.1 µM

Compound | cell viability [1] [%] | cell viability [2] [%] | cell viability [3] [%] | cell viability [4] [%] | cell viability [5] [%] | cell viability [6] [%] | cell viability [7] [%] | cell viability [8] [%] | cell viability [9] [%] | cell viability [10] [%] | cell viability [11] [%] | cell viability [12] [%] | cell viability [13] [%] | cell viability [14] [%] | cell viability [15] [%] | cell viability [16] [%] | cell viability [17] [%] | cell viability [18] [%] | cell viability [19] [%] | cell viability [20] [%] | cell viability [21] [%] | cell viability [22] [%] | cell viability [23] [%] | cell viability [24] [%] | cell viability [25] [%] | cell viability [26] [%] | cell viability [27] [%] | cell viability [28] [%] | cell viability [29] [%] | cell viability [30] [%] | cell viability [31] [%] | cell viability [32] [%] | cell viability [33] [%]
C[C@@]12C[C@@]3(O)O[C@@H](O1)[C@]1(COC(=O)c4ccccc4)[C@H]3C[C@@]12O[C@@H]1O[C@H](CO)[C@@H](O)[C@H](O)[C@H]1O | 96 | 91.2 | 109 | 117 | 98.5 | 103 | 108 | 96.7 | 107 | 113 | 107 | 105 | 87 | 101 | 100 | 124 | 92.6 | 116 | 138 | 111 | 105 | 98.9 | 99 | 89.8 | 118 | 122 | 121 | 101 | 119 | 115 | 122 | 107 | 122
COc1cc2ncnc(Nc3cc(Br)c(O)c(Br)c3)c2cc1OC | 80 | 90.5 | 97.8 | 98.4 | 109 | 101 | 113 | 109 | 104 | 106 | 78 | 112 | 107 | 118 | 121 | 125 | 101 | 131 | 124 | 108 | 102 | 85.6 | 82.8 | 99.2 | 110 | 97.8 | 113 | 99.7 | 103 | 108 | 98.5 | 89.1 | 61.6
CC1(C)O[C@@H]2C[C@H]3[C@@H]4CCC5=CC(=O)C=C[C@]5(C)[C@H]4[C@@H](O)C[C@]3(C)[C@]2(C(=O)CO)O1 | 74.9 | 34.7 | 89.1 | 77 | 72.8 | 73.6 | 66.3 | 57.7 | 60.3 | 60.3 | 53.6 | 99.8 | 39.1 | 96.1 | 95.7 | 89.1 | 83.2 | 67.5 | 61.8 | 65.2 | 58.4 | 55.4 | 79.7 | 37.8 | 82.4 | 81.8 | 80 | 88.1 | 68.4 | 51.9 | 53.9 | 49.8 | 53.4
C[C@@H]1[C@H](O)[C@@H](C)/C=C/C=C/C=C/C=C/C=C/C=C/C=C/[C@H](O[C@@H]2O[C@H](C)[C@@H](O)[C@H](N)[C@@H]2O)C[C@@H]2O[C@](O)(C[C@@H](O)C[C@@H](O)[C@H](O)CC[C@@H](O)C[C@@H](O)CC(=O)O[C@H]1C)C[C@H](O)[C@H]2C(=O)O | 105 | 92.1 | 105 | 110 | 110 | 110 | 103 | 114 | 102 | 105 | 125 | 113 | 115 | 110 | 107 | 105 | 112 | 112 | 108 | 104 | 121 | 118 | 110 | 103 | 108 | 93.8 | 114 | 116 | 105 | 108 | 109 | 91.2 | 127
